This passage reports EC50 results from ChEMBL document CHEMBL1146909, “A novel class of positive allosteric modulators of AMPA receptors: design, synthesis, and structure-activity relationships of 3-biphenyl-4-yl-4-cyano-5-ethyl-1-methyl-1H-pyrrole-2-carboxylic acid, LY2059346” (Bioorg Med Chem Lett, 2006).

Holding throughout (type): functional, cell-based
Assay [1] addresses T1, Glutamate receptor 2 (Homo sapiens, UniProt P42262). As to the kind of experiment: Activity at human recombinant iGluR2 flop expressed in HEK293 cells measured as change in intracellular calcium ion concentration in presence of glutamate by FLIPR assay.
Assay [2] addresses T2, Glutamate receptor 4 (Homo sapiens, UniProt P48058). The assay is described as follows: Activity at human recombinant iGluR4 flip expressed in HEK293 cells measured as change in intracellular calcium ion concentration in presence of glutamate by FLIPR assay.
The target of assay [3] is T2, Glutamate receptor 4. As to the kind of experiment: Activity at human recombinant iGluR4 flop expressed in HEK293 cells measured as change in intracellular calcium ion concentration in presence of glutamate by FLIPR assay.
For assay [4], the target named is T1, Glutamate receptor 2. The assay is described as follows: Activity at human recombinant iGluR2 flip expressed in HEK293 cells measured as change in intracellular calcium ion concentration in presence of glutamate by FLIPR assay.

SMILES strings stand for the structures.

T1 sequence (P42262 whole entry): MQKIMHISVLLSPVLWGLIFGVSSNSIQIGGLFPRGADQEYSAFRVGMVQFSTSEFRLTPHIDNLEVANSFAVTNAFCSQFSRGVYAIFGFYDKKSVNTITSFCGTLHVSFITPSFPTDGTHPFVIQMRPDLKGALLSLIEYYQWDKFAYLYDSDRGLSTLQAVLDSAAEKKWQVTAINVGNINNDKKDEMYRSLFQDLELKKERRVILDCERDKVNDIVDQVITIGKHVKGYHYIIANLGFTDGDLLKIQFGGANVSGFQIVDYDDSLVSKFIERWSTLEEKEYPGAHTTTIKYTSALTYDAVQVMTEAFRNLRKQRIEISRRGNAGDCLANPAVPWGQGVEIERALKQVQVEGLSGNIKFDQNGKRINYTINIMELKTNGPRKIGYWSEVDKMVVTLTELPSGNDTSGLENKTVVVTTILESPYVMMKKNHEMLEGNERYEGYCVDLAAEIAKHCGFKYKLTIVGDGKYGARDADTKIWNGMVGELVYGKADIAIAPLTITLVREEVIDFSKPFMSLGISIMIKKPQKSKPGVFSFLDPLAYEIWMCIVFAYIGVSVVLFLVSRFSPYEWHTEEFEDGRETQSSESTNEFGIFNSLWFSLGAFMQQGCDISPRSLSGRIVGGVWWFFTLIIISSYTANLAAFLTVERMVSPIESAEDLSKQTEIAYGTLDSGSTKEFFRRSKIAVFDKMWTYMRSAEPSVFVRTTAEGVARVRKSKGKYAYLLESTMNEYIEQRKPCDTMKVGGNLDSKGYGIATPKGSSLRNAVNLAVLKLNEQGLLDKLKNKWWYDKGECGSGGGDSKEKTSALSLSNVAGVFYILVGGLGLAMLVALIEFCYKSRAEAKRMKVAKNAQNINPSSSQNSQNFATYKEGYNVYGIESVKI
T2 sequence (P48058 whole entry): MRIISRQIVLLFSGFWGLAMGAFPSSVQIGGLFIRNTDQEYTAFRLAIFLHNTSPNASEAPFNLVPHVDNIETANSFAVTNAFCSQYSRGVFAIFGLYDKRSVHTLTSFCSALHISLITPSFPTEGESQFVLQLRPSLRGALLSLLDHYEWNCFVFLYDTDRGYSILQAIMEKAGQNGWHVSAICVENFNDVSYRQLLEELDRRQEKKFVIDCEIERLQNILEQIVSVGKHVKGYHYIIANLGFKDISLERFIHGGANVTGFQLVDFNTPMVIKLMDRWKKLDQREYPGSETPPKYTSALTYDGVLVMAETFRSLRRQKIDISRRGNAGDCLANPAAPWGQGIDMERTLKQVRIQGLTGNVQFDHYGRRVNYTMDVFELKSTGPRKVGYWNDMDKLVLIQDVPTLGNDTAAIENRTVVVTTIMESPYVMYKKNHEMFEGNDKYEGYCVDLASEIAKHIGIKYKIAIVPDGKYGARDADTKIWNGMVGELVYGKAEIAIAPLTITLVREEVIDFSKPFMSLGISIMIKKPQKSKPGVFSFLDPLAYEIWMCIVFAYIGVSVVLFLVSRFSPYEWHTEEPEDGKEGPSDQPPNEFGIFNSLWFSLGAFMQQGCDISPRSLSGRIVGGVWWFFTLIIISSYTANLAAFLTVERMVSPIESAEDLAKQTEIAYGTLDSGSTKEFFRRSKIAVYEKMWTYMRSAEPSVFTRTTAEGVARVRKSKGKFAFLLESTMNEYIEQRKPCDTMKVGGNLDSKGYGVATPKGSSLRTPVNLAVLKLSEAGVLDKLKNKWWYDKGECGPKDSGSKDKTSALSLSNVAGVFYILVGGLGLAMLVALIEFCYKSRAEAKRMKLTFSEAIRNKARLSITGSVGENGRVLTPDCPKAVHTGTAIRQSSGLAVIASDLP

In the case of `CSc1sc(C(=O)O)c(-c2ccc(C(C)(C)C)cc2)c1C#N`, the EC50 at Glutamate receptor 2 [1] is 309 nM; on Glutamate receptor 4 [2], 214 nM; at Glutamate receptor 4 [3], 1560 nM; at Glutamate receptor 2 [4], 97 nM.
Taken in the same sequence, the figures for `CCc1c(C#N)c(-c2ccc(-c3ccc(F)cc3)cc2)c(C(=O)O)n1C` were 1040 nM, 242 nM, 2950 nM and 345 nM.
With `CCSc1c(C#N)c(-c2ccc(-c3ccccc3)cc2)c(C(=O)O)n1C`, at Glutamate receptor 4 [2], the EC50 is 619 nM.
For `CCc1c(C#N)c(-c2ccc(-c3cccc(C#N)c3)cc2)c(C(=O)O)n1C`, the EC50 is 974 nM at Glutamate receptor 2 [1], 631 nM at Glutamate receptor 4 [2], > 3000 nM at Glutamate receptor 4 [3] and 395 nM at Glutamate receptor 2 [4].
The corresponding values for `CCc1c(C#N)c(-c2ccc(-c3ccc(C)cc3)cc2)c(C(=O)O)n1C` are 1650 nM, 1140 nM, > 3000 nM and 412 nM.
The corresponding values for `CCc1c(C#N)c(-c2ccc(-c3ccccc3C)cc2)c(C(=O)O)n1C` are 990 nM, 790 nM, 1180 nM and 270 nM.
The corresponding values for `CCc1c(C#N)c(-c2ccc(-c3ccccc3OC)cc2)c(C(=O)O)n1C` are 902 nM, 673 nM, 386 nM and 280 nM.
As for `CCc1c(C#N)c(-c2ccc(-c3ccccc3SC)cc2)c(C(=O)O)n1C`, the EC50 at Glutamate receptor 2 [1] was found to be 32 nM; at Glutamate receptor 4 [2] it was 105 nM; on Glutamate receptor 4 [3] it was 77 nM; on Glutamate receptor 2 [4], 57 nM.
As to `CCc1c(C#N)c(-c2ccc(-c3cccc(OC)c3)cc2)c(C(=O)O)n1C`, the EC50 at Glutamate receptor 2 [1] is 924 nM; at Glutamate receptor 4 [2] it was 1050 nM; at Glutamate receptor 4 [3], > 3000 nM; at Glutamate receptor 2 [4] it was 391 nM.
Taken in the same sequence, the figures for `Cc1c(C#N)c(-c2ccc(-c3ccccc3)cc2)c(C(=O)O)n1C` were 391 nM, 532 nM, 2390 nM and 308 nM.
The corresponding values for `CCc1c(C#N)c(-c2ccc(-c3cccc(F)c3)cc2)c(C(=O)O)n1C` are 1490 nM, 223 nM, > 3000 nM and 426 nM.
The corresponding values for `CCc1c(C#N)c(-c2ccc(-c3ccccc3F)cc2)c(C(=O)O)n1C` are 143 nM, 80 nM, 185 nM and 111 nM.
For `CCc1c(C#N)c(-c2ccc(-c3cccc(C)c3)cc2)c(C(=O)O)n1C`, the EC50 was 2130 nM at Glutamate receptor 2 [1], 2080 nM at Glutamate receptor 4 [2], > 3000 nM on Glutamate receptor 4 [3] and 965 nM on Glutamate receptor 2 [4].
Taken in the same sequence, the figures for `CCc1c(C#N)c(-c2ccc(-c3cccc(Cl)c3)cc2)c(C(=O)O)n1C` were 900 nM, 1080 nM, > 3000 nM and 186 nM.
Taken in the same sequence, the figures for `CC(C)Sc1c(C#N)c(-c2ccc(-c3ccccc3)cc2)c(C(=O)O)n1C` were > 3000 nM, > 3000 nM, > 3000 nM and > 3000 nM.
On to `CCOc1ccccc1-c1ccc(-c2c(C#N)c(CC)n(C)c2C(=O)O)cc1`, for which the EC50 on Glutamate receptor 2 [1] is 36 nM; at Glutamate receptor 4 [2], 158 nM; on Glutamate receptor 4 [3] it was 146 nM; on Glutamate receptor 2 [4], 83 nM.
Taken in the same sequence, the figures for `CCc1c(C#N)c(-c2ccc(-c3ccccc3Cl)cc2)c(C(=O)O)n1C` were 55 nM, 225 nM, 157 nM and 42 nM.
Taken in the same sequence, the figures for `CCc1c(C#N)c(-c2ccc(-c3ccccc3C#N)cc2)c(C(=O)O)n1C` were 73 nM, 56 nM, 53 nM and 82 nM.
The corresponding values for `CCc1c(C#N)c(-c2ccc(-c3ccc(C#N)cc3)cc2)c(C(=O)O)n1C` are 370 nM, 373 nM, > 3000 nM and 423 nM.
Turning to `CSc1c(C#N)c(-c2ccc(-c3ccccc3)cc2)c(C(=O)O)n1C`, the EC50 at Glutamate receptor 2 [1] came out at 473 nM; at Glutamate receptor 4 [2], 394 nM; on Glutamate receptor 4 [3], 1300 nM; on Glutamate receptor 2 [4], 174 nM.
The corresponding values for `CCc1c(C#N)c(-c2ccc(-c3ccc(OC)cc3)cc2)c(C(=O)O)n1C` are 370 nM, 738 nM, > 3000 nM and 423 nM.
As for `CCc1c(C#N)c(-c2ccc(-c3ccccc3)cc2)c(C(=O)O)n1C`, the EC50 at Glutamate receptor 2 [1] amounted to 398 nM; on Glutamate receptor 4 [2] it was 213 nM; at Glutamate receptor 4 [3], 1770 nM; on Glutamate receptor 2 [4] it was 103 nM.
Taken in the same sequence, the figures for `CCc1c(C#N)c(-c2ccc(-c3ccc(Cl)cc3)cc2)c(C(=O)O)n1C` were 984 nM, 910 nM, > 3000 nM and 142 nM.
Regarding `Cn1c(Br)c(C#N)c(-c2ccc(-c3ccccc3)cc2)c1C(=O)O`, the 50% effective concentration (EC50) on Glutamate receptor 2 [1] is > 3000 nM; on Glutamate receptor 4 [2], 679 nM; on Glutamate receptor 4 [3], 1690 nM; at Glutamate receptor 2 [4] it was > 3000 nM.
As to `Cn1cc(C#N)c(-c2ccc(-c3ccccc3)cc2)c1C(=O)O`, the EC50 at Glutamate receptor 2 [1], at Glutamate receptor 4 [2], on Glutamate receptor 4 [3] and on Glutamate receptor 2 [4] was > 3000 nM in each case.
